Test results from USRE44987E1, “Bromo-phenyl substituted thiazolyl dihydropyrimidines” (Sunshine Lake Pharma Co., Ltd., priority 2007, dated 2014).
Where two headings read alike, the source gives them in different places.

Columns and labels:
hepatitis B virus [1] = test: Antiviral action on hepatitis B virus in HepG2.2.15 cells (HBV DNA dot-blot hybridization); type: cell-based; conditions: 50% reduction of intra- or extracellular hepatitis B-specific band
Procedure: The antiviral action of the compounds of the invention on hepatitis B virus is investigated by methods based on those described by M. A. Sells et al., Proc. Natl. Acad. Sci., 84, 1005-1009 (1987) and B. E. Korba et al., Antiviral Research 19, 55-70 (1992).
The antiviral tests are carried out in 96-well microtiter plates. The first vertical row of the plate receives only growth medium and HepG2.2.15 cells. It serves as virus control.
Stock solutions of the test compounds (50 mM) are initially dissolved in DMSO, and further dilutions are prepared in the HepG2.2.15 growth medium. The compounds according to the invention are usually pipetted in a test concentration of 100 μM (1st test concentration) in each case into the second vertical test row of the microtiter plate and subsequently diluted in twofold steps […] in growth medium plus 2% by weight of fetal calf serum (volume 25 μl)
Each well of the microtiter plate then contains 225 μl of HepG2.2.15 cell suspension (5×10^4 cells/ml) in growth medium plus 2% by weight of fetal calf serum. The test mixture is incubated at 37° C. and 5% CO2 (v/v) for 4 days.
The supernatant is then aspirated off and discarded, and the wells receive 225 μl of freshly prepared growth medium. The compounds according to the invention are each added anew as 10-fold concentrated solution in a volume of 25 μl. The mixtures are incubated for a further 4 days
The supernatant and/or cells are then harvested and sucked by means of a vacuum onto 96-well dot-blot chambers covered with a nylon membrane (in accordance with the manufacturer's information).
After the supernatants or lysed cells is transferred to the nylon membrane of the blot apparatus (see above), the intra- or extracellular supernatants of the HepG2.2.15 cells are denatured (1.5 M NaCl/0.5 N NaOH), neutralized (3 M NaCl/0.5M Tris HCl, pH 7.5) and washed (2×SSC). The DNA is then baked onto the membrane by incubating the filters at 120° C. for 2-4 hours.
Detection of the viral DNA from the treated HepG2.2.15 cells on the nylon filters is usually carried out with nonradioactive, digoxigenin-labeled hepatitis B-specific DNA probes, each of which is labeled with digoxigenin, purified and employed for the hybridization in accordance with the manufacturer's information.
The prehybridization and hybridization take place in 5×SSC, 1×blocking reagent, 0.1% by weight N-lauroylsarcosine, 0.02% by weight SDS and 100 μg of herring sperm DNA. The prehybridization takes place at 60° C. for 30 minutes, and the specific hybridization takes place with 20 to 40 ng/ml of the digoxigenized, denatured HBV-specific DNA (14 hours, 60° C.). The filters are then washed.
The immunological detection of the digoxigenin-labeled DNA took place in accordance with the manufacturer's information: […]

hepatitis B virus [2] = conditions: examples of U.S. Pat. No. 7,074,784, values as described in that patent; cited from earlier work
[3] = Hepatitis B virus, HepG2.2.15, HepG2.2.15 cells

SMILES	IC50 (hepatitis B virus [1]; HepG2.2.15 cells) [nM]	IC50 (hepatitis B virus [1]; [3]) [nM]	IC50 (hepatitis B virus [2]) [nM]
CCOC(=O)C1=C(CN2CCOCC2)NC(c2nccs2)=NC1c1ccc(F)cc1Br (single isomer, unassigned; (-)) [(−)-5]	0.1		
COC(=O)C1=C(CN2CCOCC2)NC(c2nccs2)=NC1c1ccc(F)cc1Br (single isomer, unassigned; (-)) [(−)-6]	0.2		
CCOC(=O)C1=C(CN2CCOCC2)NC(c2nccs2)=NC1c1ccc(F)cc1Br (centres unmarked) [Example 5, Ethyl 4-(2-bromo-4-fluorophenyl)-2-(thiazol-2-yl)-6-(4-morpholinylmethy)-1,4-dihydropyrimidine-5-carboxylic ester]		0.2	2 to 4
COC(=O)C1=C(CN2CCOCC2)NC(c2nccs2)=NC1c1ccc(F)cc1Br (centres unmarked) [Example 6, Methyl 4-(2-bromo-4-fluorophenyl)-2-(thiazol-2-yl)-6-(4-morpholinylmethy)-1,4-dihydropyrimidine-5-carboxylic ester]		0.3	
